Measured values taken from publication PMC4784888, “Activity Based High-Throughput Screening for Novel O-GlcNAc Transferase Substrates Using a Dynamic Peptide Microarray” (PLoS ONE, 2016).

Assays:
purified m-OGT [1] = experiment: Inhibition of RBL-2_410–422 O-GlcNAcylation by known OGT inhibitor on microarray; assay type: biochemical, human; details: 200 μM ST045849, purified m-OGT (0.2 μg/μL), 1 mM UDP-GlcNAc
Protocol: One step OGT purification was performed using His60 Ni Gravity Flow Columns (Clontech) according to the manufacturer’s instructions. Briefly, the nickel column was equilibrated with a buffer containing 50 mM sodium phosphate, 300 sodium chloride, 20 mM imidazole, and pH 7.4, followed by incubation with cell lysate containing His tag OGT for 1h at 4°C. After washing several times using buffer containing 50 mM sodium phosphate, 300 sodium chloride, 40 mM imidazole, and pH 7.4, the recombinant OGT was eluted using elution buffer containing 50 mM sodium phosphate, 300 mM sodium chloride, 300 mM imidazole, and pH 7.4. […]
(§1) Peptide O-GlcNAcylation was assessed using PamChip 4 microarray chips with a PamStation 12 instrument (Pamgene international, The Netherlands). […] O-GlcNAcylation of each peptide was detected by a fluorescent signal which was produced by an FITC conjugated antibody bound to the O-GlcNAc moiety on the peptide.
Image analysis was performed using BioNavigator 6 software (Pamgene international, The Netherlands). Briefly, each image was quantified by automated array grid finding and subsequent quantification of signal and local background for each individual spot. In this work, the signal median-minus-background value was used as the quantitative parameter for the O-GlcNAcylation of the peptide. […]

OGT = details: known OGT inhibitor; ref [31]; read-out: reported IC50; cited from earlier work
Description: Its interesting biology motivated us to further focus on the validation of RBL-2 O-GlcNAcylation in the following work. Kinetic signals of the GlcNAcylation were collected to fully understand the O-GlcNAcylation of RBL-2_420–422.

m-OGT [2] = experiment: Validation of RBL-2 peptide O-GlcNAcylation on microarray, dependency on UDP-GlcNAc and m-OGT lysate; assay type: biochemical, human
Protocol: (§2) Plasmids encoding s-OGT, m-OGT, and nc-OGT are generous gifts from John A. Hanover (National Institute of Health, USA). OGT overexpression was carried out as previously described. All the plasmids were transformed into E.coli BL21 (DE3) competent cells to produce a cell lysate containing OGT for use or for further purification. Briefly, inoculated a single colony into 50 ml of LB broth media containing 50 μg/ml ampicillin and cells were grown overnight at 37°C with vigorous shaking. 50 mL of the start culture was added into 1L LB broth media containing 50 μg/mL ampicillin and it was incubated with shaking at 200 rpm at 37°C until A600 reached 0.4–0.6. After the culture was cooled to room temperature, 0.5 mM IPTG was added into the culture to induce protein expression. […] After centrifugation for 10 min at 12000 rpm at 4°C, the supernatant was carefully transferred into a clean tube and was ready for the array assay or for further purification. Protein expression was determined by coomassie blue staining and western blotting using an anti-OGT antibody.
as §1, with “peptide. […]” for “peptide.”

m-OGT [3] = experiment: O-GlcNAcylation on kinase substrate peptide microarray, m-OGT; assay type: biochemical, human; details: bacterial lysate containing m-OGT (7 μg/μL), 1 mM UDP-GlcNAc, 50 mM Tris-HCl pH 7.5, 30°C, FITC antibody fluorescence, corrected for signal without UDP-GlcNAc
Protocol: (§3) Plasmids encoding s-OGT, m-OGT, and nc-OGT are generous gifts from John A. Hanover (National Institute of Health, USA). OGT overexpression was carried out as previously described. All the plasmids were transformed into E.coli BL21 (DE3) competent cells to produce a cell lysate containing OGT for use or for further purification. Briefly, inoculated a single colony into 50 ml of LB broth media containing 50 μg/ml ampicillin and cells were grown overnight at 37°C with vigorous shaking. 50 mL of the start culture was added into 1L LB broth media containing 50 μg/mL ampicillin and it was incubated with shaking at 200 rpm at 37°C until A600 reached 0.4–0.6. After the culture was cooled to room temperature, 0.5 mM IPTG was added into the culture to induce protein expression. After 16 hours, the cells were collected by centrifugation for 10 min at 4000 RPM at 4°C. The pellets were lysed in lysis buffer containing 20 mM Tris-HCl, pH 7.5, 1 mg/mL lysome, 0.1% triton x-100 and complete mini EDTA-free protease inhibitor cocktail on ice for 10 min and the lysate was sonicated until the DNA was completely sheared. After centrifugation for 10 min at 12000 rpm at 4°C, the supernatant was carefully transferred into a clean tube and was ready for the array assay or for further purification. Protein expression was determined by coomassie blue staining and western blotting using an anti-OGT antibody.
(§4) Peptide O-GlcNAcylation was assessed using PamChip 4 microarray chips with a PamStation 12 instrument (Pamgene international, The Netherlands). The OGT enzyme reaction was prepared essentially as described[26] with minor modifications. Briefly, before addition of the enzyme reaction, the microarray was blocked with blocking buffer (1% BSA in TBS). After 30 cycles (2 cycles/min) blocking, the blocking buffer was aspirated and the microarray was incubated with 40 μL of the enzyme reaction containing OGT (lysate or purified), OGT reaction buffer (50 mM Tris—HCl, pH 7.5;1 mM DTT;12.5 mM MgCl2), a 1:1 pre-incubated mixture of anti-O-GlcNAc and FITC conjugated secondary antibody, and the sugar donor UDP-GlcNAc or water as a control for 480 cycles (2 cycles/min) at 30°C. The microarray was run in parallel by pumping the reaction up and down through the porous membrane at every cycle and a tiff image was obtained at every 20 cycles by a CCD camera inside the PamStation. O-GlcNAcylation of each peptide was detected by a fluorescent signal which was produced by an FITC conjugated antibody bound to the O-GlcNAc moiety on the peptide.
(§5) Image analysis was performed using BioNavigator 6 software (Pamgene international, The Netherlands). Briefly, each image was quantified by automated array grid finding and subsequent quantification of signal and local background for each individual spot. In this work, the signal median-minus-background value was used as the quantitative parameter for the O-GlcNAcylation of the peptide.
(§6) Dynamic peptide microarray (PamChip) technology has been successfully and widely used for kinase activities profiling in the last decade. In the present work, we describe, for the first time, the utility of this peptide microarray format for the identification of human OGT activity. Due to the fact that O-GlcNAcylation and phosphorylation may occur at the same or proximal amino acids on the same protein [9], a peptide microarray of 144 peptides derived from different kinase substrates (S1 Appendix) was selected for an initial test. […] O-GlcNAcylation of peptides in each individual spot was detected by a fluorescent signal produced by the FITC labelled antibody recognizing the O-GlcNAcylated amino acids of converted peptides. Kinetic activity was measured through scanning the signal at regular intervals.
(§7) Fig 2 Identification of human OGT substrates from a kinase substrate and nuclear hormone receptor interaction peptide microarray. […]

purified m-OGT [4] = experiment: Ala scan of RBL-2_410–422 on peptide microarray; assay type: biochemical, human; details: microarray; 1 mM UDP-GlcNAc, 0.2 μg/μL purified m-OGT
Protocol: One step OGT purification was performed using His60 Ni Gravity Flow Columns (Clontech) according to the manufacturer’s instructions. Briefly, the nickel column was equilibrated with a buffer containing 50 mM sodium phosphate, 300 sodium chloride, 20 mM imidazole, and pH 7.4, followed by incubation with cell lysate containing His tag OGT for 1h at 4°C. After washing several times using buffer containing 50 mM sodium phosphate, 300 sodium chloride, 40 mM imidazole, and pH 7.4, the recombinant OGT was eluted using elution buffer containing 50 mM sodium phosphate, 300 mM sodium chloride, 300 mM imidazole, and pH 7.4. The eluted fraction was concentrated through a 100,000 Da molecular weight cut off Amicon unit by centrifugation 10 min at 5000 RPM at 4°C.
as §4, §5
Synthesis of all the peptides was achieved by following a standard Fmoc SPPS strategy on a Symphony Multiple Peptide Synthesizer and starting from rink amide resin. The following Fmoc amino acids were used: Fmoc-Cys(Trt)-OH, Fmoc-Gly-OH, Fmoc-Lys(Boc)-OH, Fmoc-Glu(Otbu)-OH, Fmoc-Asn(Trt)-OH, Fmoc-Ser(tBu)-OH, Fmoc-Thr(tBu)-OH, Fmoc-Ala-OH, Fmoc-Pro-OH, Fmoc-Val-OH. Deprotection was performed using 20% piperidine in DMF, and coupling was performed using 1:0.9:2 amino acid/ HBTU/DIPEA in DMF. After completion of the synthesis, the protected peptidyl resins were incubated with a 10 mL mixture of TFA (trifluoroacetic acid): H2O: triisopropylsilane (TIPS): 1, 2-ethanedithiol (EDT) (9:0.5:0.25:0.25, v/v/v/v) and allowed to stir for 2 h at room temperature under a nitrogen atmosphere. The cleaving mixture was filtered and the resin was washed with TFA (2 mL) and DCM (4 mL). The residue was precipitated by treatment of precooled diethyl ether and centrifugation. Two times washing and centrifugation yielded the crude products in a pellet. The precipitated peptides were dissolved in water, frozen, and lyophilized. All products were stored at -20°C. Crude peptide analysis was carried out by LC-MS.
To further confirm this and investigate the role of this and surrounding amino acid residues in our activity based assay, we resynthesized the RBL-2 peptide present on the microarray and performed an Ala scan, thus replacing of all the possible O-GlcNAc sites (Ser and Thr) in RBL-2_420–422 (Fig 4A). To immobilize the peptides on the chip, all the peptides were prepared with an extra CG at the NH2 terminal to allow immobilization on the maleimide-based chip surface. […]

[5] = system: OGT (s-OGT, m-OGT, nc-OGT); experiment: O-GlcNAcylation on kinase substrate peptide microarray, three isoforms taken together; assay type: biochemical, human; details: for O-GlcNAcylation by all three isoforms OGT: kinase substrate microarray, bacterial lysates s-, m-, nc-OGT, 1 mM UDP-GlcNAc
Protocol: as §2, with “expression. After 16 hours, the cells were collected by centrifugation for 10 min at 4000 RPM at 4°C.” for “expression.”
as §1, §5
Dynamic peptide microarray (PamChip) technology has been successfully and widely used for kinase activities profiling in the last decade. […] Kinetic activity was measured through scanning the signal at regular intervals. […]

s-OGT = experiment: O-GlcNAcylation on kinase substrate peptide microarray, s-OGT; assay type: biochemical, human; details: bacterial lysate containing s-OGT (7 μg/μL), 1 mM UDP-GlcNAc, 50 mM Tris-HCl pH 7.5, 30°C, FITC antibody fluorescence, corrected for signal without UDP-GlcNAc
Protocol: as §3, §4, §5, §6, §7

nc-OGT = experiment: O-GlcNAcylation on kinase substrate peptide microarray, nc-OGT; assay type: biochemical, human; details: bacterial lysate containing nc-OGT (7 μg/μL), 1 mM UDP-GlcNAc, 50 mM Tris-HCl pH 7.5, 30°C, FITC antibody fluorescence, corrected for signal without UDP-GlcNAc
Protocol: as §3, §4, §5, §6, §7

[6] = molecular target: T1, m-OGT (mitochondrial isoform of O-GlcNAc transferase) (human) (UniProt O15294)
T1 sequence: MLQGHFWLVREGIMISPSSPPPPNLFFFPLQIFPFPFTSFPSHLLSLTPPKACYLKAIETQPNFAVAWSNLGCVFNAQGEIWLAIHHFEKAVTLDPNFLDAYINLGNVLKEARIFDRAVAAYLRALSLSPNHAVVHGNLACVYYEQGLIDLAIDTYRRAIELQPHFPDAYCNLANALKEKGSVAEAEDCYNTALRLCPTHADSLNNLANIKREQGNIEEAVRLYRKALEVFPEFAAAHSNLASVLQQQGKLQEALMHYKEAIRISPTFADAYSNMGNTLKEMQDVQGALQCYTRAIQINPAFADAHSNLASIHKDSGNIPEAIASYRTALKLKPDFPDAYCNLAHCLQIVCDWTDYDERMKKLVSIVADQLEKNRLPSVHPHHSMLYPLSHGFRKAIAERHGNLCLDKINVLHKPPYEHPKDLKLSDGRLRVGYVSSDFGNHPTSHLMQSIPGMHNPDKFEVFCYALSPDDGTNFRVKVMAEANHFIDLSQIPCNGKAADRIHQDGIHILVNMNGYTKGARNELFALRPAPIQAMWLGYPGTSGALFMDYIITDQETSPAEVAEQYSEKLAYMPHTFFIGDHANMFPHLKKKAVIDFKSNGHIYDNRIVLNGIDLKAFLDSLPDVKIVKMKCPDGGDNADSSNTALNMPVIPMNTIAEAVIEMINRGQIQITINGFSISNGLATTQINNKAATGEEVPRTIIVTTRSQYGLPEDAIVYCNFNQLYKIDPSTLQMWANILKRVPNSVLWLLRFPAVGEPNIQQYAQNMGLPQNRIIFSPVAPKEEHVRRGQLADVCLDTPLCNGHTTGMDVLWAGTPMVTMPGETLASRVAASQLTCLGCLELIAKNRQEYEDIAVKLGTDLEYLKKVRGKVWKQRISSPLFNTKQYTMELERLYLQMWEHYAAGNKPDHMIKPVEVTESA

Compound | OGT isoforms activity, m (m-OGT [3]) | OGT isoforms activity, s (s-OGT) | OGT isoforms activity, nc (nc-OGT) | O-GlcNAcylation by all three isoforms OGT [5] | other results
O=C(O)C1CC(=O)N(CCC23CC4CC(CC(C4)C2)C3)C(=Nc2ccc(Cl)cc2)S1 (stereo not shown) [ST045849, 3-(2-adamantanylethyl)-2-[(4-chlorophenyl)azamethylene]-4-oxo-1,3-thiazaperhyd roine-6-carboxylic acid] | – | – | – | – | inhibition of RBL-2 peptide O-GlcNAcylation (purified m-OGT [1]): 80%; IC50 (OGT): ~50 µM
KENSPCVTPVSTA [RBL-2_410_422, kinase substrate microarray peptide …] | P (Signal greater than 5% of the highest signal was defined as positive (P)) | P (Signal greater than 5% of the highest signal was defined as positive (P)) | P (Signal greater than 5% of the highest signal was defined as positive (P)) | – | O-GlcNAcylation versus amount of m-OGT lysate (m-OGT [2]; bacterial lysate containing m-OGT 0, 1.7, 3.5, 7 μg/μL, 1 mM UDP-GlcNAc): increased with increasing amounts of bacterial lysate containing recombinant m-OGT; O-GlcNAcylation rate versus UDP-GlcNAc concentration (m-OGT [2]; bacterial lysate containing m-OGT (7 μg/μL), UDP-GlcNAc 0–10 mM): increased upon the addition of increasing concentrations of the donor UDP-GlcNAc; OGT activity of wild type compared with C415A, microarray (purified m-OGT [4]): dramatic decrease of activity comparing with C415A peptide; Rank as hit in screening assay ([5]; peptide microarray screening): best hit in our screening assay
LSAFRRTSLAGGG [MYPC3_268_280, kinase substrate microarray peptide …] | P (Signal greater than 5% of the highest signal was defined as positive (P)) | P (Signal greater than 5% of the highest signal was defined as positive (P)) | P (Signal greater than 5% of the highest signal was defined as positive (P)) | significantly O-GlcNAcylated by all three isoforms OGT | –
MLRGRSLSVTSLG [GYS2_1_13, kinase substrate microarray peptide …] | P (Signal greater than 5% of the highest signal was defined as positive (P)) | P (Signal greater than 5% of the highest signal was defined as positive (P)) | P (Signal greater than 5% of the highest signal was defined as positive (P)) | significantly O-GlcNAcylated by all three isoforms OGT | –
RBL-2_410–422 T417A peptide (from UniProt Q08999 410-422) | – | – | – | – | O-GlcNAcylation of the peptide in solution, UDP-Glo assay (UDP formation) [6]: 20%
RBL-2_410–422 T421A peptide (from UniProt Q08999 410-422) | – | – | – | – | decrease of the O-GlcNAcylation of the immobilised peptide by purified m-OGT (0.2 μg/μL, 1 mM UDP-GlcNAc), peptide microarray, against the control peptide (wild type with C415A) [6]: 40%
